Data published in PMC9151520 (Archives of Toxicology, 2022).
Read-outs that look alike come from different tables or passages of the source.

Key:
[1] = system: p53 signaling (p53RE-bla HCT-116 cells); test: cells; type: cell-based
[2] = system: p53 signaling (p53RE-bla HCT-116 cells)
[3] = system: p53 signaling (p53RE-bla HCT-116 cells); remark: listed apart in the source
[4] = system: p53RE-bla HCT-116 cells
[5] = read-out: EC50, p53 activation, cherry pick confirmation
[6] = read-out: EC50, p53 activation, primary screening
[7] = Homo sapiens, HCT-116, read-out: EC50, p53 activation, primary screening
[8] = Homo sapiens, HCT-116, read-out: Efficacy, p53 activation, primary screening
[9] = Homo sapiens, HCT-116, read-out: p53 activation EC50, primary screening
[10] = Homo sapiens, HCT-116, read-out: p53 activation efficacy, primary screening
[11] = Homo sapiens, HCT-116, read-out: p53 activation EC50, cherry pick confirmation
[12] = Homo sapiens, HCT-116, read-out: p53 activation efficacy, cherry pick confirmation

| Structure (SMILES) | Efficacy, p53 activation, cherry pick confirmation [1] | EC50, p53 activation, cherry pick confirmation [3] | EC50, viability, cherry pick confirmation [4] | EC50, viability, primary screening [4] | Efficacy, viability, cherry pick confirmation [4] | Efficacy, viability, primary screening [4] | EC50 [1, 9] | Emax [1, 10] | p53 activation EC50, cherry pick confirmation [2] | p53 activation EC50, primary screening [2] | p53 activation efficacy, cherry pick confirmation [2] | p53 activation efficacy, primary screening [2] | p53 activation EC50, cherry pick confirmation [3] | p53 activation EC50, primary screening [3] | p53 activation efficacy, cherry pick confirmation [3] | p53 activation efficacy, primary screening [3] | Viability EC50, cherry pick confirmation [4] | Viability EC50, primary screening [4] | Viability efficacy, cherry pick confirmation [4] | Viability efficacy, primary screening [4] | also measured |
| --- | --- | --- | --- | --- | --- | --- | --- | --- | --- | --- | --- | --- | --- | --- | --- | --- | --- | --- | --- | --- | --- |
| c1cc(OCC2CO2)ccc1Cc1ccc(OCC2CO2)cc1 (stereo not shown) [Bis[4-(glycidyloxy)phenyl]methane] | 31.4403 | inactive | inactive | inactive | inactive | inactive |  |  |  |  |  |  |  |  |  |  |  |  |  |  | Efficacy, p53 activation, primary screening [1]: 46.3017; EC50 [1, 5]: 26.4 µM; EC50 [1, 6]: 47.6 µM; EC50, p53 activation, cherry pick confirmation [2]: inactive; EC50, p53 activation, primary screening [2]: inactive; Efficacy, p53 activation, cherry pick confirmation [2]: inactive; Efficacy, p53 activation, primary screening [2]: inactive; EC50, p53 activation, primary screening [3]: inactive; Efficacy, p53 activation, cherry pick confirmation [3]: inactive; Efficacy, p53 activation, primary screening [3]: inactive |
| Oc1ccc(Oc2ccccc2)cc1 [4-Phenoxyphenol] | inactive | inactive | inactive | inactive | inactive | inactive |  |  |  |  |  |  |  |  |  |  |  |  |  |  | EC50, p53 activation, cherry pick confirmation [1]: inactive; EC50 [1, 7]: 25.6 µM; Emax [1, 8]: 32.4%; EC50, p53 activation, cherry pick confirmation [2]: inactive; EC50, p53 activation, primary screening [2]: inactive; Efficacy, p53 activation, cherry pick confirmation [2]: inactive; Efficacy, p53 activation, primary screening [2]: inactive; EC50, p53 activation, primary screening [3]: inactive; Efficacy, p53 activation, cherry pick confirmation [3]: inactive; Efficacy, p53 activation, primary screening [3]: inactive |
| O=C(Nc1cccc(C(F)(F)F)c1)c1cc(Br)cc(Br)c1O [Fluorosalan] |  | inactive | inactive | inactive | inactive | inactive |  |  |  |  |  |  |  |  |  |  |  |  |  |  | EC50 ([1]; Homo sapiens, HCT-116, read-out: EC50, p53 activation, cherry pick confirmation): 27.3 µM; EC50 [1, 7]: 17.6 µM; Emax ([1]; Homo sapiens, HCT-116, read-out: Efficacy, p53 activation, cherry pick confirmation): 47.5%; Emax [1, 8]: 33.3%; EC50, p53 activation, cherry pick confirmation [2]: inactive; EC50, p53 activation, primary screening [2]: inactive; Efficacy, p53 activation, cherry pick confirmation [2]: inactive; Efficacy, p53 activation, primary screening [2]: inactive; EC50, p53 activation, primary screening [3]: inactive; Efficacy, p53 activation, cherry pick confirmation [3]: inactive; Efficacy, p53 activation, primary screening [3]: inactive |
| C[C@H]1CCCC(=O)CCC/C=C/c2cc(O)cc(O)c2C(=O)O1 [Zearalenone] |  |  |  |  |  |  | 16.8 µM | 49.2% | inactive | inactive | inactive | inactive | inactive | inactive | inactive | inactive | inactive | inactive | inactive | inactive | p53 activation EC50, cherry pick confirmation [1]: inactive; p53 activation efficacy, cherry pick confirmation [1]: inactive |
| CC[n+]1c(-c2ccccc2)c2cc(N)ccc2c2ccc(N)cc21 [Ethidium bromide] |  |  |  |  |  |  | 4.43 µM | 182% | inactive | inactive | inactive | inactive | inactive | inactive | inactive | inactive | inactive | inactive | inactive | inactive | EC50 [1, 11]: 5.41 µM; Emax [1, 12]: 176% |
| CC(=O)OC[C@H]1O[C@@H](n2ncc(=O)[nH]c2=O)[C@H](OC(C)=O)[C@@H]1OC(C)=O [6-Azaribine] |  |  |  |  |  |  | 0.432 µM | 60.2% | inactive | inactive | inactive | inactive | inactive | inactive | inactive | inactive | inactive | inactive | inactive | inactive | EC50 [1, 11]: 0.603 µM; Emax [1, 12]: 79.7% |
| COP(=O)(OC)Oc1ccc([N+](=O)[O-])cc1 [Methylparaoxon] | inactive | inactive | inactive | inactive | inactive | inactive |  |  |  |  |  |  |  |  |  |  |  |  |  |  | EC50, p53 activation, cherry pick confirmation [1]: inactive; EC50, p53 activation, primary screening [1]: inactive; Efficacy, p53 activation, primary screening [1]: inactive; EC50 [2]: 20.1 µM; EC50 [2, 5]: 20 µM |
| O=c1n(CC2CO2)c(=O)n(CC2CO2)c(=O)n1CC1CO1 (stereo not shown) [Tris(2,3-epoxypropyl)isocyanurate] |  |  |  |  |  |  |  |  | inactive | inactive | inactive | inactive | inactive | inactive | inactive | inactive | inactive | inactive | inactive | inactive | p53 activation efficacy, cherry pick confirmation [1]: 90.7567; p53 activation efficacy, primary screening [1]: 99.0367; EC50 ([1]; read-out: p53 activation EC50, cherry pick confirmation): 27.9 µM; EC50 ([1]; read-out: p53 activation EC50, primary screening): 23.7 µM |
| CCOP(=S)(OCC)Oc1cc(Cl)c(Br)cc1Cl [Bromophos-ethyl] | 38.522 | inactive | inactive | inactive | inactive | inactive |  |  |  |  |  |  |  |  |  |  |  |  |  |  | EC50, p53 activation, primary screening [1]: inactive; Efficacy, p53 activation, primary screening [1]: inactive; EC50 [1, 5]: 33.2 µM; EC50 [2]: 12.5 µM; EC50 [2, 5]: 6.31 µM |
| CCC(C)c1cc([N+](=O)[O-])cc([N+](=O)[O-])c1OC(=O)OC(C)C (stereo not shown) [Dinobuton] |  |  |  |  |  |  | 49.5 µM | 74.7% | inactive | inactive | inactive | inactive | inactive | inactive | inactive | inactive | inactive | inactive | inactive | inactive | p53 activation EC50, cherry pick confirmation [1]: inactive; p53 activation efficacy, cherry pick confirmation [1]: inactive |
| CC(CN1CC(=O)NC(=O)C1)N1CC(=O)NC(=O)C1 (stereo not shown) [Razoxane] |  |  |  |  |  |  | 11.5 µM | 60.2% | inactive | inactive | inactive | inactive | inactive | inactive | inactive | inactive | inactive | inactive | inactive | inactive | EC50 [1, 11]: 20.9 µM; Emax [1, 12]: 31.9% |
| COC(=O)c1nc(Cl)c(Cl)nc1N | 118.088 | inactive | inactive | inactive | inactive | inactive |  |  |  |  |  |  |  |  |  |  |  |  |  |  | Efficacy, p53 activation, primary screening [1]: 51.0133; EC50 [1, 5]: 24 µM; EC50 [1, 6]: 21.5 µM; EC50, p53 activation, cherry pick confirmation [2]: inactive; Efficacy, p53 activation, cherry pick confirmation [2]: inactive; EC50 [2, 6]: 22.4 µM; EC50, p53 activation, primary screening [3]: inactive; Efficacy, p53 activation, cherry pick confirmation [3]: inactive |
| CC1=C(C(=O)Nc2ccccc2)S(=O)(=O)CCO1 [Oxycarboxin] |  |  |  |  |  |  | 21.2 µM | 76% | inactive | inactive | inactive | inactive | inactive | inactive | inactive | inactive | inactive | inactive | inactive | inactive | EC50 [1, 11]: 36.4 µM; Emax [1, 12]: 82.6% |
